Measurements reported in patent US12123010B2, “Plants having increased tolerance to herbicides” (BASF SE, priority 2017, dated 2024).

Assays:
[1] = test system: Transgenic T2 Arabidopsis plants and ARBTH WT MC24 non-transgenic; assay: Greenhouse post spray test, injury 14 DAT (Tables ii, iii); format: in vivo, Arabidopsis thaliana; conditions: Arabidopsis thaliana, 336 h, Table ii; for pest or weed control at 50 g/ha: 50 g ai/ha; for pest or weed control at 100 g/ha: 100 g ai/ha; for pest or weed control at 200 g/ha: 200 g ai/ha;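 for all read-outs here: value is percent injury to the sprayed plants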
[2] = test system: Transgenic T2 Arabidopsis plants harboring PPO inhibitor tolerance trait; assay: Lab based germination assay in 48-well plates (Table i); format: in vivo, Arabidopsis thaliana; conditions: construct AMATU_PPO2_TP_hemG (Escherichia coli); in comparison to wild type plants
[3] = test system: Variant PPO Enzyme R128A, F420V (Amaranthus PPO2); assay: biochemical; format: biochemical; conditions: variant R128A, F420V vs wild type
[4] = molecular target: Wild Type PPO Enzyme (Amaranthus PPO2, SEQ ID NO: 1) (Amaranthus tuberculatus, UniProt Q0NZW9); assay: PPO enzyme assay (recombinant), wild type; format: biochemical
Wild Type PPO Enzyme (Amaranthus PPO2, SEQ ID NO: 1), sequence (Q0NZW9 1-534): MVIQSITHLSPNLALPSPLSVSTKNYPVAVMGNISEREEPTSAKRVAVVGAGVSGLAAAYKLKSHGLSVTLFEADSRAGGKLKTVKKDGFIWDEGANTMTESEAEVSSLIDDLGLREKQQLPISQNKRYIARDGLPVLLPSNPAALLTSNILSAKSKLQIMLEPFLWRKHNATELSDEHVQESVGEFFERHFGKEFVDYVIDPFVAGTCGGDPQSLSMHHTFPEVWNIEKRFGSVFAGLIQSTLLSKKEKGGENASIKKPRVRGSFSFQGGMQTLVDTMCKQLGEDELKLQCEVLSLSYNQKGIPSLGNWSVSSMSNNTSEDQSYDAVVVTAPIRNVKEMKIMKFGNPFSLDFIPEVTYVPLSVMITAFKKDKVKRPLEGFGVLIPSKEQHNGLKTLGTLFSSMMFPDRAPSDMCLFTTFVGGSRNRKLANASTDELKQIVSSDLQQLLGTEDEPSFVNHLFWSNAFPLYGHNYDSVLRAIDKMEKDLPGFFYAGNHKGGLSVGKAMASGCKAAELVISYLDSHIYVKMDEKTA

[5] = test system: Variant PPO Enzyme F420M (Amaranthus PPO2); assay: biochemical; format: biochemical; conditions: variant F420M vs wild type
[6] = test system: Variant PPO Enzyme R128A, F420M (Amaranthus PPO2); format: biochemical; conditions: variant R128A, F420M vs wild type
[7] = test system: Variant PPO Enzyme L397E, F420M (Amaranthus PPO2); format: biochemical; conditions: variant L397E, F420M vs wild type
[8] = AMATU_PPO2_WT event Q, 1 g ai/ha
[9] = AMATU_PPO2_WT event Q, 5 g ai/ha
[10] = AMATU_PPO2_WT event Q, 10 g ai/ha
[11] = AMATU_PPO2_WT event Q, 30 g ai/ha
[12] = ARBTH WT MC24 non-transgenic, 1 g ai/ha + 1% MSO
[13] = ARBTH WT MC24 non-transgenic, 5 g ai/ha + 1% MSO
[14] = ARBTH WT MC24 non-transgenic, 10 g ai/ha + 1% MSO
[15] = ARBTH WT MC24 non-transgenic, 30 g ai/ha + 1% MSO
[16] = ARBTH WT MC24 non-transgenic, 80 g ai/ha + 1% MSO
[17] = ARBTH_PPO1_S305L_Y426M event O, 5 g ai/ha
[18] = ARBTH_PPO1_S305L_Y426M event O, 10 g ai/ha
[19] = ARBTH_PPO1_S305L_Y426M event O, 30 g ai/ha
[20] = ARBTH_PPO1_S305L_Y426M event O, 80 g ai/ha
[21] = ARBTH_PPO1_WT event Q, 1 g ai/ha
[22] = ARBTH_PPO1_WT event Q, 5 g ai/ha
[23] = ARBTH_PPO1_WT event Q, 10 g ai/ha
[24] = ARBTH_PPO1_WT event Q, 30 g ai/ha

| Structure (SMILES) | pest or weed control at 1 g/ha [1, 8] | pest or weed control at 5 g/ha [1, 9] | pest or weed control at 10 g/ha [1, 10] | pest or weed control at 30 g/ha [1, 11] | pest or weed control at 1 g/ha [1, 12] | pest or weed control at 5 g/ha [1, 13] | pest or weed control at 10 g/ha [1, 14] | pest or weed control at 30 g/ha [1, 15] | pest or weed control at 80 g/ha [1, 16] | pest or weed control at 5 g/ha [1, 17] | pest or weed control at 10 g/ha [1, 18] | pest or weed control at 30 g/ha [1, 19] | pest or weed control at 80 g/ha [1, 20] | pest or weed control at 1 g/ha [1, 21] | pest or weed control at 5 g/ha [1, 22] | pest or weed control at 10 g/ha [1, 23] | pest or weed control at 30 g/ha [1, 24] | Tolerance Factor [2] | IC50 [4] | further results |
| --- | --- | --- | --- | --- | --- | --- | --- | --- | --- | --- | --- | --- | --- | --- | --- | --- | --- | --- | --- | --- |
| Cn1c(C(F)(F)F)cc(=O)n(-c2nc(Oc3ccccc3OCC(=O)O)c(Cl)cc2F)c1=O [Uracilpyridine 5, 2-[2-[[3-chloro-5-fluoro-6-[3-methyl-2,6-dioxo-4-(trifluoromethyl)pyrimidin-1-yl]-2-pyridyl]oxy]phenoxy]acetic acid] | 28% | 90% | 100% | 100% | 100% | 100% | 100% | 100% | 100% | 0% | 0% | 68% | 73% | 45% | 90% | 99% | 100% | 1400 | – | – |
| CCOC(=O)COc1ccccc1Oc1nc(-n2c(=O)cc(C(F)(F)F)n(C)c2=O)c(F)cc1F [Uracilpyridine 8, ethyl 2-[2-[[3,5-difluoro-6-[3-methyl-2,6-dioxo-4-(trifluoromethyl)pyrimidin-1-yl]-2-pyridyl]oxy]phenoxy]acetate] | 10% | 55% | 100% | 100% | 88% | 100% | 100% | 100% | 100% | 0% | 0% | 0% | 0% | 10% | 30% | 55% | 100% | 8202 | 0.496 nM | Tolerance Factor (R/S) [3]: 4531; Tolerance Factor (R/S) [5]: 139 |
| Cn1c(C(F)(F)F)cc(=O)n(-c2nc(Oc3ccccc3OCC(=O)O)c(F)cc2F)c1=O [Uracilpyridine 9, 2-[2-[[3,5-difluoro-6-[3-methyl-2,6-dioxo-4-(trifluoromethyl)pyrimidin-1-yl]-2-pyridyl]oxy]phenoxy]acetic acid] | 38% | 68% | 100% | 100% | 85% | 100% | 100% | 100% | 100% | 0% | 0% | 0% | 0% | 10% | 50% | 70% | 98% | 1600 | – | – |
| Cn1c(C(F)(F)F)cc(=O)n(-c2nc(Oc3ccccc3OCC(=O)NS(C)(=O)=O)c(Cl)cc2F)c1=O [Uracilpyridine 10, 2-[2-[[3-chloro-5-fluoro-6-[3-methyl-2,6-dioxo-4-(trifluoromethyl)pyrimidin-1-yl]-2-pyridyl]oxy]phenoxy]-N-methylsulfonyl-acetamide] | 58% | 100% | 100% | 100% | 100% | 100% | 100% | 100% | 100% | 10% | 8% | 99% | 99% | 50% | 98% | 100% | 100% | – | 0.212 nM | pest or weed control at 50 g/ha ([1]; ALOMY_PPO2_R137L_F438V event F): 0%; pest or weed control at 100 g/ha ([1]; ALOMY_PPO2_R137L_F438V event F): 8%; pest or weed control at 200 g/ha ([1]; ALOMY_PPO2_R137L_F438V event F): 10%; pest or weed control at 50 g/ha ([1]; ALOMY_PPO2_R137L_F438V event G): 0%; pest or weed control at 100 g/ha ([1]; ALOMY_PPO2_R137L_F438V event G): 0%; pest or weed control at 200 g/ha ([1]; ALOMY_PPO2_R137L_F438V event G): 5%; pest or weed control at 50 g/ha ([1]; AMATU_PPO2_L397E_F420V event D): 0%; pest or weed control at 100 g/ha ([1]; AMATU_PPO2_L397E_F420V event D): 5%; pest or weed control at 200 g/ha ([1]; AMATU_PPO2_L397E_F420V event D): 13%; pest or weed control at 50 g/ha ([1]; AMATU_PPO2_L397E_F420V event L): 8%; pest or weed control at 100 g/ha ([1]; AMATU_PPO2_L397E_F420V event L): 53%; pest or weed control at 200 g/ha ([1]; AMATU_PPO2_L397E_F420V event L): 20%; pest or weed control at 50 g/ha ([1]; AMATU_PPO2_R128A_F420V event A): 38%; pest or weed control at 100 g/ha ([1]; AMATU_PPO2_R128A_F420V event A): 53%; pest or weed control at 200 g/ha ([1]; AMATU_PPO2_R128A_F420V event A): 68%; pest or weed control at 50 g/ha ([1]; AMATU_PPO2_R128A_F420V event D): 30%; pest or weed control at 100 g/ha ([1]; AMATU_PPO2_R128A_F420V event D): 78%; pest or weed control at 200 g/ha ([1]; AMATU_PPO2_R128A_F420V event D): 88%; Tolerance Factor (R/S) [6]: 7879; Tolerance Factor (R/S) [7]: 30714 |
